Values after ≈ are worked out from the molar mass of the structure shown.
Columns and labels:
[1] = molecular target: T1, human TRPA1 (Homo sapiens, UniProt O75762); assay: FLIPR Tetra calcium influx assay, CHO cells expressing TRPA1, cinnamaldehyde agonist (hTRPA1 CHO Ca2+ AUC EVO); type: cell-based
T1 construct: expressed in transfected cells; host or cells: CHO cells
Procedure: The IC50 ([…]) of compounds on the human and rat TRPA1 channels were determined using a FLIPR Tetra instrument. CHO cells expressing TRPA1 were plated into 384-well plates, incubated overnight at 37° C., and loaded with BD calcium indicator dye for 1 hr at 37° C. followed by 15 minutes at room temperature. The assay buffer was Hank's Balanced Salt Solution (HBSS) containing 20 mM HEPES (pH readjusted to 7.4) along with 0.02% BSA.
Following dye load and plate cool down, compounds were added to the cells using FLIPR Tetra. Plates were then incubated with compounds for 20 minutes at room temperature prior to adding agonist. Following this incubation, about an EC80 concentration of cinnamaldehyde (75 uM for human TRPA1 and 45 uM for rat TRPA1) was added to active the channels and block of cinnamaldehyde induced calcium influx was measured.
The IC50 results were fit with a standard Hill function, keeping the Hill coefficient (n) fixed to 1.5. Fixing the Hill coefficient will generally reduce variability of the IC50 determination. The IC50 results were individually examined to make sure the MIN and MAX points were set correctly prior to validation of the results.

[2] = Aqueous solubility (K. Sol); type: physicochemical; settings: aqueous medium (not further specified), kinetic from dmso stock; read-out: K. Sol (estimated aqueous solubility)
Source text: Aqueous solubility may be determined using the procedures reported by Alsenz et al., “High throughput solubility measurement in drug discovery and development,” Advanced Drug Delivery Reviews (2007) 59, 546-568 and Kibbey et al., “An Integrated Process for Measuring the Physicochemical Properties of Drug Candidates in a Preclinical Discovery Environment,” J. Pharmaceutical Sci. (2001) 90(8), 1164-1175.

[3] = Human protein plasma binding; type: in vitro ADME; settings: read-out: hPPB (human protein plasma binding) (converted)
Procedure: Certain pharmacokinetic attributes were evaluated for sulfonyl pyridyl compounds of the present disclosure. The results are shown in Table 3 below where: “hTRPA1” refers to IC50 in nM; “hPPB” refers to human protein plasma binding in percent; “Corrected IC50” refers to the hTRPA1 values corrected for hPPB; “HLM-CLhep” refers to human liver microsome clearance in mL/min/kg; “K.Sol” refers to estimated aqueous solubility in μM; and “NR” refers to not run.
Human protein plasma binding may be measured according to the methods described by Banker et al., “Plasma/Serum Protein Binding Determinations,” Current Drug Metabolism (2008), 9, 854-859, and Kariv et al., “Development of a high throughput equilibrium dialysis method,” J. Pharm Sci. (2001) May; 90(5):580-87, as well as using commercially available assay kits by Wyatt, Cerep, Cyprotex and others.

[4] = molecular target: T1, human TRPA1; assay: Human Ca2+ MAX IC50 calcium assay; type: cell-based; settings: Table 5; read-out: H Ca2+ MAX (human CA2+ MAX IC50)
Source text: Human Ca2+ MAX IC50 may be measured using one of the commercially available calcium assay kits provided by Molecular Devices, Abcam, Bio-Rad, Biovision, Enzo Lifesciences, Abnova, Sigma-Aldrich, or others.

[5] = Human liver microsome clearance / stability; type: in vitro ADME; settings: human liver microsomes; for HLM (human liver microsome stability): Table 5
Source text: Human liver microsome clearance (mL/min/kg) may be measured according to the method described by Ackley et al, “Metabolic Stability Assessed by Liver Microsomes and Hepatocytes”, in “Optimization in Drug Discovery” in the “Methods in Pharmacology and Toxicology” series (ISSN 1557-2153), pp. 151-162 (Yan, Ed., Print ISBN 978-1-58829-332-9, Springer (2004), as well as by using commercially available assay kits by Cerep, Cyprotex, Bd Bioscience and others.
Human liver microsome HLM stability may be measured as using the procedure of Ackley et al. as described above.

[6] = GSH (glutathione) trapping of reactive metabolites; type: in vitro ADME; settings: in vitro incubation with glutathione as trapping reagent
Procedure: GSH trapping in a method for screening reactive metabolites for the potential to cause adverse drug reactions. Reactive metabolites may implicate clinical toxicity through drug compound bioactivation or inactivation of proteins. One such assessment utilizes in vitro incubations comprising glutathione (GSH) as a trapping reagent. LC/MS may be used to detect and characterize reactive intermediate formation as indicated by trapped glutathione adducts, as described by Yan et al., “Stable Isotope Trapping and High Throughput Screenings of Reactive Metabolites Using the Active MS Signature,” Anal. Chem. (2004), 76, 6835-6847.

[7] = Table 3, read-out: hTRPA1 (IC50)
[8] = calculated from hTRPA1 IC50 and hPPB, read-out: Corrected IC50 (hTRPA1 values corrected for hPPB)

T1 sequence (O75762 whole entry): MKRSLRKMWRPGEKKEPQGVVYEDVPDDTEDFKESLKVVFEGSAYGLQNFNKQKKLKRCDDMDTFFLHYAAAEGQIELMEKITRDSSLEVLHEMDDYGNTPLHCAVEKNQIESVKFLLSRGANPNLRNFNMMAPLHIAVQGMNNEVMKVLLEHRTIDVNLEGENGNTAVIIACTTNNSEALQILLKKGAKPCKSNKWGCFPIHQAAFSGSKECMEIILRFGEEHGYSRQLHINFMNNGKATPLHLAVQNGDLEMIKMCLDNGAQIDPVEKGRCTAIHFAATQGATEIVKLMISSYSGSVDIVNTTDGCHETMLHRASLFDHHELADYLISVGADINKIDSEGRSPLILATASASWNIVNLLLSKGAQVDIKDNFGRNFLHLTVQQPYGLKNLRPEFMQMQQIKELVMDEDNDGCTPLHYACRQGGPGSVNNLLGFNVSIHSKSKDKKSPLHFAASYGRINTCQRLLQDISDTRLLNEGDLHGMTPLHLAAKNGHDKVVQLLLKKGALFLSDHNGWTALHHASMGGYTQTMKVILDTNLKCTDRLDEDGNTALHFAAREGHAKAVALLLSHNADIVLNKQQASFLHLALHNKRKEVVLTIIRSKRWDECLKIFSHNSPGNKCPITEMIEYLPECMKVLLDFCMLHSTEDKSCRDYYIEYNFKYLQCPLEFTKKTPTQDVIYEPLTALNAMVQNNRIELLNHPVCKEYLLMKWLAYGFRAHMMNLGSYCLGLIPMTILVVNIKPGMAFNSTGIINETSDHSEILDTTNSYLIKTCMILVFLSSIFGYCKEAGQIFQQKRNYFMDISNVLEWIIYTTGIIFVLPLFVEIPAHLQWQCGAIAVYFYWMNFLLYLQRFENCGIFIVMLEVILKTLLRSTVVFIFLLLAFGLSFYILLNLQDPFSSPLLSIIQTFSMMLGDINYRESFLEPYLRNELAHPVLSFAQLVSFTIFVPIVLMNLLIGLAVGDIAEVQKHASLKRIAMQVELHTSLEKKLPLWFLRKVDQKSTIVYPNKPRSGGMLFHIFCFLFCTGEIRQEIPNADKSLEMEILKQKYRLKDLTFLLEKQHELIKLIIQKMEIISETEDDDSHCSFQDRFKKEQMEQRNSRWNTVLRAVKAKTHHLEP

Compound | IC50 [1, 7] [µM] | IC50 [1, 8] [µM] | solubility [2] [µM] | fraction unbound [3] | IC50 [4] [µM] | HLM (human liver microsome stability) [5] [mL/min/kg] | GSH trapping (glutathione trapping) [6] | HLM-CLhep (human liver microsome clearance) ([5]; Table 3) [mL/min/kg]
C[C@H]1[C@H](F)C[C@@H](C(=O)NCc2cc(-c3cnc(C(F)(F)F)nc3)ncc2C(F)(F)F)N1S(=O)(=O)c1ccc(Cl)nc1 [Compound 5] | – | – | – | – | 0.005 | 6.6 | positive | –
C[C@H]1[C@H](F)C[C@@H](C(=O)NCc2cc(-c3cnc(C(F)(F)F)nc3)ncc2C(F)(F)F)N1S(=O)(=O)c1ccc(F)cn1 (single isomer, unassigned) [Compound 1] | – | – | – | – | 0.008 | 4.1 | – | –

Results, then the molecule that gave them:

IC50 [1, 7] [µM] | IC50 [1, 8] [µM] | solubility [2] [µM] | fraction unbound [3] | IC50 [4] [µM] | HLM (human liver microsome stability) [5] [mL/min/kg] | GSH trapping (glutathione trapping) [6] | HLM-CLhep (human liver microsome clearance) ([5]; Table 3) [mL/min/kg] | Compound
0.404 | 5.4 | 4 (≈ 2.24 µg/mL) | 0.075 | – | – | – | – | C[C@H]1[C@H](F)C[C@@H](C(=O)NCc2cc(-c3cnc(C(F)(F)F)nc3)ncc2F)N1S(=O)(=O)c1ccc(F)cn1 (single isomer, unassigned) [Pyridyl Sulfonamide 2]
0.0079 | 0.161 | 30 (≈ 18.3 µg/mL) | 0.049 | – | – | – | 4 | C[C@H]1[C@H](F)C[C@@H](C(=O)NCc2cc(-c3cnc(C(F)(F)F)nc3)ncc2C(F)(F)F)N1S(=O)(=O)c1ccc(F)cn1 (single isomer, unassigned) [Pyridyl Sulfonamide 1]
0.329 | 1.94 | – | 0.17 | – | – | – | – | C[C@H]1[C@H](F)C[C@@H](C(=O)NCc2cc(-c3cnc(C(F)(F)F)nc3)cnc2C(F)F)N1S(=O)(=O)c1ccc(F)cn1 (single isomer, unassigned) [Pyridyl Sulfonamide 3]
